The test system of assay [1] is PDH-E1alpha (pSer300) in HEK293T cells. Put plainly: Cellular immunofluorescence assay, PDH-E1alpha (pSer300) in HEK293T cells. It is filed as cell-based, human. Particulars: Homo sapiens, HEK-293T, 5 hours incubation, anti-PDH-E1alpha (pSer300) immunofluorescence, read-out: IC50 (cell data). A digest of the protocol: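 Human HEK293T cells exposed to compound for 5 h, then fixed, permeabilised and immunostained for phospho-Ser300 PDH-E1α with Alexa 488 secondary and Hoechst counterstain. Fluorescence read by laser scanning cytometry. Data normalized to a pharmacological inhibitor control for dose-response curves.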

Assay [2] concerns the target human PDHK2 (12-407) (Homo sapiens (Human), UniProt Q15119). Put plainly: Isothermal titration calorimetry (ITC) binding. As to conditions: ITC at 30° C., pH 7.5. A digest of the protocol:
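Tag-free human PDHK2 (12-407) from E. coli, 50 μM, titrated into 5 μM compound at 30° C in 20 mM HEPES, 135 mM KCl, 1 mM TCEP, 2 mM MgCl2, 15 mM NaH2PO4, pH 7.5, ≤1% DMSO. One-site fit gave KA, ΔH^obs and N after dilution-heat correction. Protein and compound concentrations were normalised to 1:1 stoichiometry against a standard inhibitor.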
(In general: In ITC the heat of successive injections is recorded.)

The target in assay [3] is PDHK2 (Homo sapiens (Human), UniProt Q15119). Put plainly: Biochemical activity testing of PDHK2: PDC inactivation assay. As to conditions: human rec PDHK2, porcine heart PDC, 5 μM ATP, read-out: IC50 PDHK2 (enzyme assay). A digest of the protocol:
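Recombinant human PDHK2 (137 nM final) and porcine heart PDC (20 mU/ml) preincubated with compound 30 min at RT in pH 7.0 phosphate kinase buffer, then 5 μM ATP 30 min at 37° C. PDC activity read as NADH fluorescence increase (Ex 340/Em 450 nm) over 45 min with pyruvate, NAD and CoA; 3 mM DCA defined zero; IC50 determined.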

The structures appear in SMILES notation.

`C[C@@](O)(C(=O)N1CCc2c(nnn2-c2ccccc2)C1)C(F)(F)F` [Compound A46, (R)-3,3,3-Trifluoro-2-hydroxy-2-methyl-1-(1-phenyl-1,4,6,7-tetrahydro-[1,2,3]triazolo[4,5-c]pyridin-5-yl)-propan-1-one]: the IC50 (in general, the concentration that gives 50% inhibition) in assay [1] was 3000 to 50000 nM; in assay [3] it was 300 to 3000 nM. The Kd (usually the constant that tells how readily two partners part at equilibrium) in assay [2] is below 300 nM.

As to `C[C@@H]1CN(C(=O)[C@@](C)(O)C(F)(F)F)Cc2cnn(C(C)(C)C)c21` [Compound A22, (R)-1-((R)-1-tert-Butyl-7-methyl-1,4,6,7-tetrahydro-pyrazolo[4,3-c]pyridin-5-yl)-3,3,3-trifluoro-2-hydroxy-2-methyl-propan-1-one], the IC50 in assay [1] and in assay [3] was below 300 nM throughout. Further, in assay [2], the Kd is below 300 nM.

As for `CC1CN(C(=O)[C@@](C)(O)C(F)(F)F)Cc2cn(-c3ccccc3)nc21` (stereo partly drawn) [Compound A17, (R)-3,3,3-Trifluoro-2-hydroxy-2-methyl-1-(7-methyl-2-phenyl-2,4,6,7-tetra-hydro-pyrazolo[4,3-c]pyridin-5-yl)-propan-1-one], the IC50 in assay [1] and in assay [3] was 300 to 3000 nM throughout. In addition, the Kd in assay [2] is 300 to 3000 nM.

On to `C[C@@H]1CN(C(=O)[C@@](C)(O)C(F)(F)F)Cc2cnn(-c3ccc(F)cc3F)c21` [Compound A20, (R)-1-[(R)-1-(2,4-Difluoro-phenyl)-7-methyl-1,4,6,7-tetrahydro-pyrazolo[4,3-c]pyridin-5-yl]-3,3,3-trifluoro-2-hydroxy-2-methyl-propan-1-one], for which the IC50 in assay [1] and in assay [3] was below 300 nM each time. Besides, the Kd in assay [2] is below 300 nM.

On to `C[C@@](O)(C(=O)N1CCc2c(cnn2-c2ccccc2)C1)C(F)(F)F` [Compound A3, (R)-3,3,3-Trifluoro-2-hydroxy-2-methyl-1-(1-phenyl-1,4,6,7-tetrahydro-pyrazolo[4,3-c]pyridin-5-yl)-propan-1-one], for which the IC50 is 300 to 3000 nM in assay [1] and below 300 nM in assay [3]. Further, the dissociation constant (Kd) in assay [2] was below 300 nM.

As for `C[C@@H]1CN(C(=O)[C@@](C)(O)C(F)(F)F)Cc2cnn(-c3ncc(F)cc3F)c21` [Compound A34, (R)-1-[(R)-1-(3,5-Difluoro-pyridin-2-yl)-7-methyl-1,4,6,7-tetrahydro-pyrazolo[4,3-c]pyridin-5-yl]-3,3,3-trifluoro-2-hydroxy-2-methyl-propan-1-one], the IC50 in assay [1] and in assay [3] was below 300 nM throughout. Besides, in assay [2], the Kd was below 300 nM.

For the origin of these results see patent publication US10526325B2, “Bicyclic heterocyclic derivatives” (Merck Patent GmbH, priority 2015, dated 2020).
